In US10000507B2, “Furo- and thieno-pyridine carboxamide compounds useful as pim kinase inhibitors” (Incyte Corporation, priority 2013, dated 2018):

How the values were obtained:
Assay type in all cases: biochemical
[1] = molecular target: Pim-1 (Homo sapiens (Human), UniProt P11309); assay: Pim-1 kinase assay; details: 1 mM ATP, biotin-labeled BAD peptide substrate; read-out: Pim1 IC50
How it was run: (§1)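 Biotin-BAD peptide ([…]) phosphorylated with 1 mM ATP by 2.5 pM Pim-1 or 1.25 pM Pim-3, 1 h at 25 °C in Tris pH 7.5, MgCl2, DTT buffer. EDTA stop with anti-phospho-BAD (Ser112) antibody and AlphaScreen streptavidin donor/Protein-A acceptor beads; signal read after 1 h dark incubation.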

[2] = molecular target: Pim-2 (Homo sapiens (Human), UniProt Q9P1W9); assay: Pim-2 kinase assay; details: 1 mM ATP, fluorescein-labeled CREBtide peptide substrate; read-out: Pim2 IC50
How it was run: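 Phosphorylated CREBtide was detected by terbium anti-pSer133 antibody TR-FRET after EDTA quench and 30 min at room temperature. Reactions ran 2 h at 25 °C with 1 mM ATP, 0.05 μM fluorescein-labelled substrate and 1 nM enzyme in pH 7.5 Tris buffer.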

[3] = molecular target: Pim-3 (Homo sapiens (Human), UniProt Q86V86); assay: Pim-3 kinase assay; details: 1 mM ATP, biotin-labeled BAD peptide substrate; read-out: Pim3 IC50
How it was run: as §1

Sequence of Pim-1 (P11309 whole entry): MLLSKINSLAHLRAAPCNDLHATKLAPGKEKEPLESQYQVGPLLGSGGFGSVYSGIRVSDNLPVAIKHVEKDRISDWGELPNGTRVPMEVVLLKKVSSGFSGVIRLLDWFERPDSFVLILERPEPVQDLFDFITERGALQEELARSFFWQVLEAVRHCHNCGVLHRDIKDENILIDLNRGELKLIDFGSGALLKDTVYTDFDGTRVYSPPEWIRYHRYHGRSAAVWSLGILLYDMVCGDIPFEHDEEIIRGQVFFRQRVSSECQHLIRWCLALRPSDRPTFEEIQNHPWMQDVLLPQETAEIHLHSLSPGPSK
Sequence of Pim-2 (Q9P1W9 whole entry): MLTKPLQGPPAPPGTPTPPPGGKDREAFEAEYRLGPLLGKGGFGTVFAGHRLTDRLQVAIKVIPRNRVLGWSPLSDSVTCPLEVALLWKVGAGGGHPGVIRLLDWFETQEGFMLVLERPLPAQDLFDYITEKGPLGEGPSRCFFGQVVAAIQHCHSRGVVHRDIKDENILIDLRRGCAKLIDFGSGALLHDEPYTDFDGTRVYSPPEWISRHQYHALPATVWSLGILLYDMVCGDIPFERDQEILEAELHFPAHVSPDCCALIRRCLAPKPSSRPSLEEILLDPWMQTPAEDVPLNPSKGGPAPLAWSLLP

SMILES	IC50 [1]	IC50 [2]	IC50 [3]
C[C@@H]1C[C@H](N)CN(c2ccncc2NC(=O)c2c(N)oc3cc(-c4cncnc4)cnc23)C1 [Example 112, 2-Amino-N-{4-[(3S,5R)-3-amino-5-methylpiperidin-1-yl]pyridin-3-yl}-6-pyrimidin-5-ylfuro[3,2-b]pyridine-3-carboxamide]	≤ 0.01 µM	0.01 to 0.1 µM	≤ 0.01 µM
Nc1oc2cc(C3CC3)cnc2c1C(=O)Nc1cnccc1N1C[C@@H](N)C[C@@H](C(F)(F)F)C1 [Example 113, 2-Amino-N-{4-[(3S,5R)-3-amino-5-(trifluoromethyl)piperidin-1-yl]pyridin-3-yl}-6-cyclopropylfuro[3,2-b]pyridine-3-carboxamide]	≤ 0.01 µM	≤ 0.01 µM	≤ 0.01 µM
C[C@@H]1C[C@H](N)CN(c2ccncc2NC(=O)c2c(N)oc3cc(C4CC4)cnc23)C1 [Example 114, 2-Amino-N-{4-[(3S,5R)-3-amino-5-methylpiperidin-1-yl]pyridin-3-yl}-6-cyclopropylfuro[3,2-b]pyridine-3-carboxamide]	≤ 0.01 µM	≤ 0.01 µM	≤ 0.01 µM
Cc1cnc2c(C(=O)Nc3cnccc3N3C[C@@H](N)C[C@@H](C(F)(F)F)C3)c(N)oc2c1 [Example 115, 2-Amino-N-{4-[(3S,5R)-3-amino-5-(trifluoromethyl)piperidin-1-yl]pyridin-3-yl}-6-methylfuro[3,2-b]pyridine-3-carboxamide]	≤ 0.01 µM	≤ 0.01 µM	≤ 0.01 µM
Cc1cnc2c(C(=O)Nc3cnccc3N3C[C@H](C)C[C@H](N)C3)c(N)oc2c1 [Example 116, 2-Amino-N-{4-[(3S,5R)-3-amino-5-methylpiperidin-1-yl]pyridin-3-yl}-6-methylfuro[3,2-b]pyridine-3-carboxamide]	≤ 0.01 µM	0.01 to 0.1 µM	≤ 0.01 µM
CCc1cnc2c(C(=O)Nc3cnccc3N3C[C@H](C)C[C@H](N)C3)c(N)oc2c1 [Example 117, 2-Amino-N-{4-[(3S,5R)-3-amino-5-methylpiperidin-1-yl]pyridin-3-yl}-6-ethylfuro[3,2-b]pyridine-3-carboxamide]	≤ 0.01 µM	≤ 0.01 µM	≤ 0.01 µM
CCc1cnc2c(C(=O)Nc3cnccc3N3C[C@@H](N)C[C@@H](C(F)(F)F)C3)c(N)oc2c1 [Example 118, 2-Amino-N-{4-[(3S,5R)-3-amino-5-(trifluoromethyl)piperidin-1-yl]pyridin-3-yl}-6-ethylfuro[3,2-b]pyridine-3-carboxamide]	≤ 0.01 µM	≤ 0.01 µM	≤ 0.01 µM
C[C@@H]1C[C@H](N)CN(c2ccncc2NC(=O)c2c(N)oc3cc(-c4c(F)cccc4F)cnc23)C1 [Example 119, 2-Amino-N-{4-[(3S,5R)-3-amino-5-methylpiperidin-1-yl]pyridin-3-yl}-6-(2,6-difluorophenyl)furo[3,2-b]pyridine-3-carboxamide]	≤ 0.01 µM	0.01 to 0.1 µM	≤ 0.01 µM
C[C@@H]1C[C@H](N)CN(c2ccncc2NC(=O)c2c(N)oc3cc(OC(F)F)cnc23)C1 [Example 120, 2-Amino-N-(4-((3S,5R)-3-amino-5-methylpiperidin-1-yl)pyridin-3-yl)-6-(difluoromethoxy)furo[3,2-b]pyridine-3-carboxamide]	≤ 0.01 µM	0.01 to 0.1 µM	≤ 0.01 µM
CC(C)Oc1cnc2c(C(=O)Nc3cnccc3N3C[C@H](C)C[C@H](N)C3)c(N)oc2c1 [Example 121, 2-Amino-N-(4-((3S,5R)-3-amino-5-methylpiperidin-1-yl)pyridin-3-yl)-6-isopropoxyfuro[3,2-b]pyridine-3-carboxamide]	≤ 0.01 µM	0.01 to 0.1 µM	≤ 0.01 µM
C[C@@H]1C[C@H](N)CN(c2ccncc2NC(=O)c2c(N)oc3cc(C4CCOC4)cnc23)C1 (stereo partly drawn) [Example 122, 2-Amino-N-(4-((3S,5R)-3-amino-5-methylpiperidin-1-yl)pyridin-3-yl)-6-(tetrahydrofuran-3-yl)furo[3,2-b]pyridine-3-carboxamide]	≤ 0.01 µM	≤ 0.01 µM	≤ 0.01 µM
